Values belong to the molecule of their own block, whether it stands above or below them.
Key:
MeLACS = tested on: T1, MeLACS; assay: coupled myokinase/pyruvate kinase/lactate dehydrogenase assay, NADH at […] nm; assay type: biochemical, Mesotaenium endlicherianum; settings: 0.1 M Tris-HCl pH 7.5, 30 °C, 5 mM ATP, 0.5 mM CoA, 10 mM MgCl2, 2 mM DTT; fatty acid 0-1 mM from stock in 5% Triton X-100
T1 construct: full-length ORF, His-tagged (pET28b, BamHI/SalI), E. coli Rosetta 2 (DE3), Ni-NTA

SlLACS2 = molecular target: T2, SlLACS2 (Solanum lycopersicum, UniProt Z9EVN9B4R8); assay: as above; assay type: biochemical; settings: 0.1 M Tris-HCl pH 7.5, 30 °C, 5 mM ATP, 0.5 mM CoA, 10 mM MgCl2, 2 mM DTT; fatty acid 0-1 mM from stock in 5% Triton X-100
T2 construct: full-length ORF, His-tagged (pET28b, BamHI/SalI), E. coli Rosetta 2 (DE3), Ni-NTA
T2 sequence (Z9EVN9B4R8 1-659): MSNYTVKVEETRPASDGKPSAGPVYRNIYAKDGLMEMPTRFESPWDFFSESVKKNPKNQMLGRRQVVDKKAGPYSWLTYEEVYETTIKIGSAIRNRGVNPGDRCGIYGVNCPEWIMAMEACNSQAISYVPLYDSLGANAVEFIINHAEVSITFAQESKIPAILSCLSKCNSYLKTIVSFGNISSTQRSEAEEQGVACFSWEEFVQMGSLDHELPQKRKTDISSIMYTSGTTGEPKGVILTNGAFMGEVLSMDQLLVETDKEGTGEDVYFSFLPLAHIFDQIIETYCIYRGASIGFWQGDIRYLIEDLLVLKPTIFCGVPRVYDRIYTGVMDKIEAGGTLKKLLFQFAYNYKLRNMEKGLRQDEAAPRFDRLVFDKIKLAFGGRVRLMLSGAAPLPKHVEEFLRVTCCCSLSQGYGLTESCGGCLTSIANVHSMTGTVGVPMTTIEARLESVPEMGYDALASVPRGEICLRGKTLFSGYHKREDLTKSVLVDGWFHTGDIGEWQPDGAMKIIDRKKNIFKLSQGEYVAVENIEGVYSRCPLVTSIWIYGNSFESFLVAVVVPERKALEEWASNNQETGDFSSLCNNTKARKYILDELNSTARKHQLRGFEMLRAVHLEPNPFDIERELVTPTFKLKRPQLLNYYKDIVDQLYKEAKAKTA

MvLACS = tested on: T3, MvLACS; assay: as above; assay type: biochemical, Mesostigma viride; settings: 0.1 M Tris-HCl pH 7.5, 30 °C, 5 mM ATP, 0.5 mM CoA, 10 mM MgCl2, 2 mM DTT; fatty acid 0-1 mM from stock in 5% Triton X-100
T3 construct: full-length ORF, His-tagged (pET28b, BamHI/SalI), E. coli Rosetta 2 (DE3), Ni-NTA

purified protein [1] = substrate: CCCCCCCCCCCCCCCC(=O)O; assay: purified protein; assay type: biochemical, Solanum lycopersicum; settings: 0.1 M Tris-HCl pH 7.5, 30 °C, 5 mM ATP, 0.5 mM CoA, 10 mM MgCl2, 2 mM DTT, fatty acid 0-1 mM from stock in 5% Triton X-100
purified protein [2] = substrate: CCCCCCCCCCCCCCCCCC(=O)O; assay: purified protein; assay type: biochemical, Solanum lycopersicum; settings: 0.1 M Tris-HCl pH 7.5, 30 °C, 5 mM ATP, 0.5 mM CoA, 10 mM MgCl2, 2 mM DTT, fatty acid 0-1 mM from stock in 5% Triton X-100

- Km (MeLACS): ~180 µM
- Km (SlLACS2): ~7 µM
- Km (MvLACS): ~32 µM
Molecule: CCCCCCCCCCCCCCCC(=O)O [palmitate (C16:0)]

- Km (MeLACS): ~166 µM
- Km (SlLACS2): ~6 µM
- Km (MvLACS): ~40 µM
Molecule: CCCCCCCCCCCCCCCCCC(=O)O [sterate (C18:0)]

B1: SlLACS1 (Solanum lycopersicum) (protein)
chain: MSMNKFGLKVEEGKEGKNGEPSIGPVYRNPIAKNGFPSADPDLSTAWQLFRSAVEKYPGNRMLGWRDFKDGKWGPYNWKTYKEAYEETLQTGSALRAHGIEPGARIGIYGANCPQWIVAMEACSAHSLICVPLYDTLGSGAVDFIIEHAEIDIVFVQDKKVKELLNAECTHAKRLKLIVCFTLLQQEEKDKAVSMNIKPYSWNEFLNMGKENPSEPSPPQPLDICTIMYTSGTSGEPKGVILTHENMTASVTGVDHFMEEFEDKMTVDDVYISFLPLAHILDRMIEEFFFHRGASVGYFHGNINEIQEDMMELKPTFLAGVPRVYEKVHEGVLKALEELNPFRRHMFHVLYNFKLKWMNLGYKQKYASRLADLLAFRKVKNRLGGRIRLIVSGGAPLSTEVEEFLRVTSCGFVLQGYGLTETCGLATIGHPDEMCMLGTVGPPFVFTEVRLEEVPEMGYDPLADPSRGEICVRGRTTFTGYYKNPELTREAIKDGWFHTGDIGEMMPNGVVKVIDRKKNVIKLSQGEYVALEYLEKVYAIAPIVEDIWVYGDSFKSMLIAVVAPHEGNTKKWADKNGHKGSITELCSLQDLNQYVLLELKSAAERNKLRGFENIKGVILEPQPFEFDKELVTATMKKRRERLLKRYKLEIDDLYKRLNAAAKR
notes: full-length ORF, His-tagged (pET28b, BamHI/SalI), E. coli Rosetta 2 (DE3), Ni-NTA
- Km (purified protein [1]): 42.4 ± 3.8 µM
- kcat (purified protein [1]): 0.102 ± 0.01 s⁻¹
- Km (purified protein [2]): 9.6 ± 1.4 µM
- kcat (purified protein [2]): 0.08 ± 0.0033 s⁻¹
